The series can be described thus: Ames test. Format: cell-based. In general terms: In the Ames test, an excess of revertant colonies over the control signals mutagenicity.

Each structure is given as a SMILES string.

Consider `CS(=O)(=O)c1ccc(C(=O)C2C(=O)CCCC2=O)c([N+](=O)[O-])c1` [Mesotrione, 2-(4-methylsulfonyl-2-nitrobenzoyl)cyclohexane-1,3-dione], for which the Ames test result is given as “negative” (Mesotrione made from NMSBA purified by Example 1 (one pot: filtration, activated carbon, hydrolysis at pH 13, crystallization)); “negative” (Mesotrione made from NMSBA purified by Example 3 (20, 30 and 40% solids loading)). The Ames test response entry (Mesotrione made from NMSBA purified by Example 2, both fractions (with carbon and without carbon)) is “negative”; the Ames test response entry (Mesotrione made from NMSBA purified by Example 4 double isolation, fractions (A) and (B)) is given as “negative”. Also, where the note is “mesotrione made by the known process from NMSBA starting material containing impurities (not purified)”, the Ames test result is recorded as “positive”.

The values are drawn from patent US7285678B2, “Purification of 2-nitro-4-methylsulphonylbenzoic acid” (Syngenta Limited, priority 2001, dated 2007).
